Measurements: ChEMBL document CHEMBL5346866, “What about the progress in the synthesis of flavonoid from 2020?” (Eur J Med Chem, 2022)
One block for each compound: values may come before it.

Tests used:
Format in all cases: functional, cell-based
[1] = system: SK-OV-3; assay: Anti-proliferative activity against human SK-OV-3 cells assessed as cell growth inhibition incubated for 72 hrs by CCK-8 assay; conditions: SK-OV-3, 72 h
[2] = system: HCC1954; assay: Anti-proliferative activity against human HCC1954 cells assessed as cell growth inhibition incubated for 72 hrs by CCK-8 assay; conditions: HCC1954, 72 h
[3] = system: HeLa; assay: Anti-proliferative activity against human HeLa cells assessed as cell growth inhibition incubated for 72 hrs by CCK-8 assay
[4] = system: DU-145; assay: Antiproliferative activity against human […] cells assessed as cell growth inhibition by SRB assay
[5] = system: PC-3; assay: Antiproliferative activity against human PC-3 cells assessed as cell growth inhibition by SRB assay

IC50 [1]: 30.6 µM | IC50 [2]: 43.4 µM
Structure (SMILES): COc1ccc(-c2oc3cc(O)cc(O)c3c(=O)c2OCc2cn([C@@H]3O[C@H](COC(C)=O)[C@@H](OC(C)=O)[C@H](OC(C)=O)[C@H]3OC(C)=O)nn2)cc1O

IC50 [4]: 1.65 µM | IC50 [5]: 1.54 µM
Structure (SMILES): C[C@]1([N+](=O)[O-])C(=O)c2cc(F)ccc2O[C@@H]1CC(=O)NC12CC3CC(CC(C3)C1)C2

Second part, the compound before the results:

Structure (SMILES): COc1ccc(-c2cc(=O)c3c(C)cc(OCc4cn([C@@H]5O[C@H](COC(C)=O)[C@@H](O[C@H]6O[C@H](COC(C)=O)[C@@H](OC(C)=O)[C@H](OC(C)=O)[C@H]6OC(C)=O)[C@H](OC(C)=O)[C@H]5OC(C)=O)nn4)cc3o2)cc1
IC50 [3]: 14.7 µM

Structure (SMILES): C[C@@]1([N+](=O)[O-])C(=O)c2cc(F)ccc2O[C@H]1CC(=O)NC12CC3CC(CC(C3)C1)C2
IC50 [4]: 0.64 µM | IC50 [5]: 0.82 µM

Structure (SMILES): CC1([N+](=O)[O-])C(=O)c2cc(F)ccc2OC1CC(=O)NC12CC3CC(CC(C3)C1)C2 (racemic)
IC50 [4]: 1.21 µM | IC50 [5]: 0.94 µM
